Experimental findings from patent US10980782B2 are described below.

Common to all, as to format: in vivo
Experiment [1] deals with human colorectal cancer HCT-15. Nature of the experiment: Human tumor xenograft in nude mice, tumor inhibition rate, HCT-15. As to conditions: HCT-15 xenograft. Here is the method: (§1) 1) Number of animals: there are 6 nude mice for each experimental group and positive control group; weighing: 20-21 g.
(§2) 2) Dosage and regimen of administration: the dose is described in the portion of the experimental results. The injection volume is 0.2 ml/mouse.
(§3) 3) Control groups: the negative control is the corresponding vehicle. The positive control is taxol which is a widely clinically used antitumor drug.
(§4) Under aseptic conditions, a tumor source with vigorous growth was taken to prepare a cell suspension of about 1-3×10^7/ml by a homogenization method. The suspension was injected subcutaneously into subaxillary region of nude mice at 0.2 ml/mouse. The drug was administered upon the tumor touchable. The drug was administered according to the regime. The animals in each group were sacrificed after the administration of three to four weeks. The tumors were taken and weighed, and the tumor inhibition rate was calculated according to the following formula: Tumor inhibition rate %=[(average tumor weight of the negative control group−average tumor weight of the compound administered group)/average tumor weight of the negative control group)×100%
For orientation: Xenograft models place foreign cells or tissue in a host animal.

For experiment [2], the system named is human liver cancer Hep-G2. Nature of the experiment: Human tumor xenograft in nude mice, tumor inhibition rate, Hep-G2. The procedure: as §1, §2, §3, §4
The test system of experiment [3] is human lung cancer A549. Nature of the experiment: Human tumor xenograft in nude mice, tumor inhibition rate, A549. The following applies: alone at 50 mg/kg/d, iv×3, q3d.
Experiment [4] concerns human prostate cancer PC-3. Kind of experiment: Human tumor xenograft in nude mice, tumor inhibition rate, PC-3. As to conditions: PC-3 xenograft, 10 mg/kg/time, iv×7qd. The procedure: 1) Number of animals: there are 6 nude mice for each experimental group and positive control group; weighing: 20-21 g. The negative control has two groups.
as §2, §3, §4

Take `O=c1[nH]cc(F)c(=O)[nH]1` [5 Fu, 5-fluorouracil]: in experiment [1] (alone at 15 mg/kg/d, iv×7, qd), the tumor inhibition rate is recorded as 42.71%.

Turning to `N.N.[Cl][Pt][Cl]` [DDP, Cisplatin], in experiment [2] (alone at 1 mg/kg/d, iv×7, qd), the tumor inhibition rate worked out at 45.33%.

The molecule `Nc1ccn([C@@H]2O[C@H](CO)[C@@H](O)C2(F)F)c(=O)n1` [Gemcitabine] came in with a tumor inhibition rate in experiment [3] of 39.23%.

Turning to `CC(=O)O[C@H]1C(=O)[C@@]2(C)[C@H]([C@H](OC(=O)c3ccccc3)[C@]3(O)C[C@H](OC(=O)[C@H](O)[C@@H](NC(=O)c4ccccc4)c4ccccc4)C(C)=C1C3(C)C)[C@]1(OC(C)=O)CO[C@@H]1C[C@@H]2O` [taxol], the tumor inhibition rate in experiment [4] came to 41.31%; in experiment [2] (10 mg/kg/time, iv×7qd), 52.2%; in experiment [1] (10 mg/kg/time, iv×7qd) it was 52.2%.
